# Article PMC11134387, “Cancer-Stem-Cell Phenotype-Guided Discovery of a Microbiota-Inspired Synthetic Compound Targeting NPM1 for Leukemia” (JACS Au, 2024)
# Tests used:
# [1] = test system: primary HSCs from WT NPM1 AML patients; assay: CD34+ liquid HSC short-term culture, WT NPM1 AML patients; format: cell-based; conditions: Homo sapiens, n = 3
# Experimental: (§1) Considering the inhibitory capacity of UCM-13369 on AML cell lines (shown in Figure 3A), the therapeutic potential was assessed in primary CD34+ cells from AML patients. Two ex vivo models were used from AML patients and healthy donors: CD34+ liquid HSC (hematopoietic stem cell) culture as a short-term model and CFU-E (colony-forming unit–erythroid) as a midterm model.
# (§2) The test compound was diluted in PBS. […]
# Primary cells. 1x10^6/mL total mononuclear bone marrow cells (as source of CD34+ HSCs) of healthy donors and AML patients were used. They were cultured using Stem SpanTM supplement with pencillin/streptomycin (500 U/ml), TPO (10 µg/mL), SCF (10 µg/mL), FLT3 (10 µg/mL), IL-6 (10 µg/mL) and IL-3 (10 µg/mL). After 24 h fresh medium was added. After 72 h in maintenance cells were ready to start the assays. All cells wer e maintained at 37 °C in a humidified incubator in an atmosphere of 5% CO2. […]
# [2] = test system: HCT-116-derived colonospheres; assay: Formation of HCT-116-derived colonospheres (CSC tumorspheres); format: cell-based; conditions: Homo sapiens, HCT-116; @5 µM (footnote d); read-out: Inhibition of tumorsphere formation (%) HCT-116
# Experimental: (BD Biosciences, Franklin Lakes, NJ, USA). All cells were maintained at 37 °C in a humidified incubator in an atmosphere of 5% CO2, and passaged every 2–3 days.
# Additionally, they were cultured using RPMI media (Gibco/Life Technologies; Grand […]
# (§3) Colonospheres, mamospheres and colony formation unit assays. 30.000 cells per well of MCF-7 cells (mamos pheres), HCT-116 cells (colonospheres) and CD34+ cells from patients (colony formation units) were seeded in serum free non- adherent medium or […]
# (§4) MethoCult (Stem Cell). […]
# NPM1 [3] = assay: Western blot of NPM1 in OCI-AML3 cells; format: cell-based; conditions: for Densitometry values for NPM1: reduction: OCI-AML3, 10 μM
# Experimental: (§5) We next studied the impact of UCM-13369 in the genes and/or expression levels of NPM1 and NPM1 C+ pathway components (Figure 4A), including the positive regulation of c-Myc[34] and the negative regulation of FBXW7 and the pro-apoptotic CASP8.[35] […] The inhibition of NPM1 was also observed in MOLM13 cells expressing WT NPM1 (Figure S1B).
# Assay (Bio-Rad Labo rato ries, Hercules, CA, USA) and 20 µg of total protein s was loaded onto 10% SDS-PAGE gels followed by transfer onto a nitrocellulose membrane. Blots were incubated with primary antibodies α-NPM1 (Abcam ), α-M YC (Cel l Signaling), α-FBXW7 ( Abcam) and an ti-mouse or anti-rabbit secondary antibodies (BD). An antibody to β-actin was used to check for equivalent protei n loading. Membranes were developed by enhanced chemiluminescenc e (Clarity Weste rn ECL substrate; Bio-Rad Laboratories ).
# Densitometry was performed with Image Lab software, normalized to the signal of β-actin, and r-normalized with the control.
# (§6) Proteomic analysis. A supplementary table (Excel file) includes all the data of the proteomic analysis, showing all the proteins identified, not only those ablated in the treated population, but also those found with different expression levels in both populations under study, and even those that were not detected in the control population but were detected in the treated population. Follows the image of a Venn diagram showing the number of proteins detected in each of the pop ulations and the proteins that converg e […]
# 2.3. NPM1 protein studies
# DNA constructs. For recombinant expression, pET28a(+) vectors encoding the native, N-end pentameric domain (residues 1- 130) and the C-end domain (residues 225- 294) constructs of NPM1 –all of which contained a N -terminal 6xHis tag– were available at the lab.4 Site directed mutagenesis was p erfo rmed by polymerase chain reaction (PCR) using the pET28a-NPM1 C-end WT vector to obtain the NPM1 C-end AML mutant construct (NPM1 C-end C+). The following primers were designed: 5’ – […]
# (1 picture or pasted object on this page, not shown here)
# MCF-7 = assay: Cytotoxic effect in breast tumor cell line (MTT); conditions: Homo sapiens, MCF7, read-out: Viability (%) MCF-7, @5 µM (footnote d)
# Experimental: The cytotoxic effect was determined in breast (MCF-7) and colon (HCT-116) tumor cell lines using MTT assays.
# Cells were seeded at 3 × 10^4 cells/mL in 96-well plates. The test compound was diluted in PBS. […] Viability was evaluated by MTT or WST-1 and dose/response curves were performed.
# NPM1 [4] = assay: Western blot of NPM1 in MOLM13 cells; format: cell-based; conditions: MOLM13, 10 µM
# Experimental: as §5
# 1. Figures S1 -S4and T ab les S1 , S2
# Figure S1. (A) Dose-response curve of UCM-13369 in MCF-7, HCT-116 and IMR90 […]
# (10 µM) in MOLM13 cells at 24 and 48 h. Densitometry values: reduction of 5% and […]
# between NSG mice injected with OCI-AML3 cells, with and without UCM-13369 treatment (50 mg/kg). (D) IHC analysis of a poptotic cells in a representative kidney sample from OC I-AML 3 xenograft mice treat ed with DMSO (vehicle, top) vs . UCM-13369 treated mice (50 mg/kg, bottom) mice: H&E ( left) and cleav ed caspase- 3 (right). […]
# as §6
# [5] = test system: primary CD34+ cells from healthy donors; assay: CFU-E colony-forming unit assay, healthy donors; format: cell-based; conditions: Homo sapiens
# Experimental: as §1, §2
# Primary cells. 1x10^6/mL total mononuclear bone marrow cells (as source of CD34+ HSCs) of healthy donors and AML patients were used. They were cultured using Stem SpanTM supplement with pencillin/streptomycin (500 U/ml), TPO (10 µg/mL), SCF (10 µg/mL), FLT3 (10 µg/mL), IL-6 (10 µg/mL) and IL-3 (10 µg/mL). After 24 h fresh medium was added. After 72 h in maintenance cells were ready to start the assays. All cells wer e maintained at 37 °C in a humidified incubator in an atmosphere of 5% CO2.
# as §3, §4
structure (smiles),measurement,setting,value
"COc1ccc(C2Cc3[nH]c4ccccc4c3C(CCNCC3CC3)C2N)cc1 (stereo not drawn) [4b, 4-{2-[(Cyclopropylmethyl)amino]ethyl}-2-(4-methoxyphenyl)-2,3,4,9-tetrahydro-1H-carbazol-3-amine]",IC50,[1],3770 nM
same,inhibition at 5 µM,[2],100%
same,Densitometry values for NPM1: reduction,NPM1 [3]; 24 h,50%
same,Densitometry values for NPM1: reduction,NPM1 [3]; 48 h,70%
same,NPM1 levels (in words),"NPM1 [3]; OCI-AML3, qPCR and Western blot",reduced levels
same,viability at 5 µM,MCF-7,96%
same,Densitometry values (NPM1): reduction,NPM1 [4]; 24 h,5%
same,Densitometry values (NPM1): reduction,NPM1 [4]; 48 h,44%
same,IC50,[5],1730 nM
